# How the values were obtained:
# Format in all cases: in vivo
# wild oat = experiment: Test Example 3: weedkilling efficacy through soil treatment; G: wild oat; conditions: soil treatment, treatment dosage 320 g/ha
# How it was run: (§1)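 Crop and weed responses were judged three weeks after a uniform surface spray of the water-diluted emulsion at the given g/ha rate. Seeds sat beneath about 1.5 cm of sterilized diluvial soil, and boxes stood in a greenhouse at 25 to 30° C.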
# beet = experiment: Test Example 3: soil treatment, effect on crop; f: beet; conditions: soil treatment, treatment dosage 320 g/ha
# How it was run: as §1
# corn = experiment: Test Example 3: soil treatment, effect on crop; c: corn; conditions: soil treatment, treatment dosage 320 g/ha
# How it was run: as §1
# barnyard grass [1] = experiment: Test Example 3: weedkilling efficacy through soil treatment; F: barnyard grass; conditions: soil treatment, treatment dosage 320 g/ha
# Source text: (§2) Weedkilling Efficacy Test Through Soil Treatment
# (§3) Sterilized diluvial soil was introduced into 21 cm long, 13 cm wide, 7 cm deep plastic boxes, and seeds of crabgrass, green foxtail, barnyard grass, wild oat, black-grass, Italian ryegrass, common wind-grass, Indian mallow, redroot pigweed, fig-leafed goosefoot, chickweed, catchweed, birds-eye speedwell, corn, soybean, rice, wheat, beet and rapeseed were each spot-sown, and covered with about 1.5 cm of soil. Next, emulsions of compounds of the present invention prepared according to compounding example 2 were diluted with water to give the specified dosages, and applied uniformly onto the soil surface with a small sprayer. The plants were grown by placing the plastic boxes in a greenhouse at 25 to 30° C., and 3 weeks after the pesticide treatment the effect on each type of plant was investigated on the basis of the assessment criteria of test example 1.
# (§4) A: barnyard grass, B: bulrush, C: oval-leafed pondweed, D: crabgrass, E: green foxtail, F: barnyard grass, G: wild oat, H: black-grass, I: Italian ryegrass, J: common wind-grass, K: Indian mallow, L: redroot pigweed, M: fig-leafed goosefoot, N: chickweed, O: catchweed, p: birds-eye speedwell, a: transplanted rice, b: directly sown rice, c: corn, d: soybean, e: wheat, f: beet, g: rapeseed
# (§5) Further, pesticide dosage (g/ha) indicates the concentration regulated such that treatment was with only the stated number of grams (g), when calculated per hectare (ha).
# Indian mallow = experiment: Test Example 3: weedkilling efficacy through soil treatment; K: Indian mallow; conditions: soil treatment, treatment dosage 320 g/ha
# How it was run: as §1
# Italian ryegrass = experiment: Test Example 3: weedkilling efficacy through soil treatment; I: Italian ryegrass; conditions: soil treatment, treatment dosage 320 g/ha
# How it was run: as §1
# bulrush [2] = experiment: Test Example 2: weedkilling efficacy, growth period weed treatment in the submerged state; B: bulrush; conditions: treatment dosage 320 g/ha
# How it was run: (§6)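 Weeds treated at the 1-2 leaf stage by application of diluted emulsion onto floodwater (4 cm depth, alluvial soil) at specified g/ha. Grown in greenhouse at 25 to 30° C; herbicidal effect rated three weeks after treatment.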
# crabgrass = experiment: Test Example 3: weedkilling efficacy through soil treatment; D: crabgrass; conditions: soil treatment, treatment dosage 320 g/ha
# How it was run: as §1
# black-grass = experiment: Test Example 3: weedkilling efficacy through soil treatment; H: black-grass; conditions: soil treatment, treatment dosage 320 g/ha
# How it was run: as §1
# birds-eye speedwell = experiment: Test Example 3: weedkilling efficacy through soil treatment; p: birds-eye speedwell; conditions: soil treatment, treatment dosage 320 g/ha
# How it was run: as §1
# green foxtail = experiment: Test Example 3: weedkilling efficacy through soil treatment; E: green foxtail; conditions: soil treatment, treatment dosage 320 g/ha
# How it was run: as §1
# barnyard grass [3] = experiment: Test Example 2: weedkilling efficacy, growth period weed treatment in the submerged state; A: barnyard grass; conditions: treatment dosage 320 g/ha
# How it was run: as §6
# rapeseed = experiment: Test Example 3: soil treatment, effect on crop; g: rapeseed; conditions: soil treatment, treatment dosage 320 g/ha
# Source text: as §2, §3, §4, §5
# directly sown rice = experiment: Test Example 3: soil treatment, effect on crop; b: directly sown rice; conditions: soil treatment, treatment dosage 320 g/ha
# How it was run: as §1
# oval-leafed pondweed [4] = experiment: Test Example 2: weedkilling efficacy, growth period weed treatment in the submerged state; C: oval-leafed pondweed; conditions: treatment dosage 320 g/ha
# How it was run: as §6
# common wind-grass = experiment: Test Example 3: weedkilling efficacy through soil treatment; J: common wind-grass; conditions: soil treatment, treatment dosage 320 g/ha
# Source text: as §2, §3, §4, §5
# transplanted rice = experiment: Test Example 1: preemergent weed treatment in the submerged state, effect on crop; a: transplanted rice; conditions: treatment dosage 320 g/ha
# How it was run: (§7)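 Pre-emergence application onto floodwater (4 cm, alluvial soil) on the day of sowing, dose expressed as g/ha from diluted emulsion formulation. Weeds sown with 2.5-leaf transplanted rice as crop; plants held at 25–30 °C in greenhouse and scored against assessment criteria after 3 weeks.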
# oval-leafed pondweed [5] = experiment: Test Example 1: weedkilling efficacy, preemergent weed treatment in the submerged state; C: oval-leafed pondweed; conditions: treatment dosage 320 g/ha
# How it was run: as §7
# barnyard grass [6] = experiment: Test Example 1: weedkilling efficacy, preemergent weed treatment in the submerged state; A: barnyard grass; conditions: treatment dosage 320 g/ha
# How it was run: as §7
# bulrush [7] = experiment: Test Example 1: weedkilling efficacy, preemergent weed treatment in the submerged state; B: bulrush; conditions: treatment dosage 320 g/ha
# How it was run: as §7
# wheat = experiment: Test Example 3: soil treatment, effect on crop; e: wheat; conditions: soil treatment, treatment dosage 320 g/ha
# How it was run: as §1
# chickweed = experiment: Test Example 3: weedkilling efficacy through soil treatment; N: chickweed; conditions: soil treatment, treatment dosage 320 g/ha
# How it was run: as §1
# redroot pigweed = experiment: Test Example 3: weedkilling efficacy through soil treatment; L: redroot pigweed; conditions: soil treatment, treatment dosage 320 g/ha
# How it was run: as §1
# soybean = experiment: Test Example 3: soil treatment, effect on crop; d: soybean; conditions: soil treatment, treatment dosage 320 g/ha
# How it was run: as §1
# fig-leafed goosefoot = experiment: Test Example 3: weedkilling efficacy through soil treatment; M: fig-leafed goosefoot; conditions: soil treatment, treatment dosage 320 g/ha
# How it was run: as §1
Structure (SMILES),"G: wild oat, weedkilling efficacy grade (wild oat)","f: beet, effect on crop grade (beet)","c: corn, effect on crop grade (corn)","F: barnyard grass, weedkilling efficacy grade (barnyard grass [1])","K: Indian mallow, weedkilling efficacy grade (Indian mallow)","I: Italian ryegrass, weedkilling efficacy grade (Italian ryegrass)",B (bulrush) weedkilling efficacy grade (bulrush [2]),"D: crabgrass, weedkilling efficacy grade (crabgrass)","H: black-grass, weedkilling efficacy grade (black-grass)","P: birds-eye speedwell, weedkilling efficacy grade (birds-eye speedwell)","E: green foxtail, weedkilling efficacy grade (green foxtail)",A (barnyard grass) weedkilling efficacy grade (barnyard grass [3]),"g: rapeseed, effect on crop grade (rapeseed)","b: directly sown rice, effect on crop grade (directly sown rice)",C (oval-leafed pondweed) weedkilling efficacy grade (oval-leafed pondweed [4]),"J: common wind-grass, weedkilling efficacy grade (common wind-grass)","a: transplanted rice, effect on crop grade (transplanted rice)","C: oval-leafed pondweed, weed kill grade (oval-leafed pondweed [5])","A: barnyard grass, weed kill grade (barnyard grass [6])","B: bulrush, weed kill grade (bulrush [7])",also measured
CC(C)(C(=O)Nc1cc(C(F)(F)F)cc(F)n1)N1COCN(c2ccccc2)C1=O [A-2-22],"5 (weed kill ratio 90% or more, (practically complete withering))","4 (weed kill ratio 70% or more, less than 90%)",0 (weed kill ratio 5% or less (practically no effect)),"5 (weed kill ratio 90% or more, (practically complete withering))","4 (weed kill ratio 70% or more, less than 90%)","5 (weed kill ratio 90% or more, (practically complete withering))","5 (weed kill ratio 90% or more, (practically complete withering))","5 (weed kill ratio 90% or more, (practically complete withering))","5 (weed kill ratio 90% or more, (practically complete withering))","5 (weed kill ratio 90% or more, (practically complete withering))","5 (weed kill ratio 90% or more, (practically complete withering))","5 (weed kill ratio 90% or more, (practically complete withering))","4 (weed kill ratio 70% or more, less than 90%)","5 (weed kill ratio 90% or more, (practically complete withering))","5 (weed kill ratio 90% or more, (practically complete withering))","5 (weed kill ratio 90% or more, (practically complete withering))","5 (weed kill ratio 90% or more, (practically complete withering))","5 (weed kill ratio 90% or more, (practically complete withering))","5 (weed kill ratio 90% or more, (practically complete withering))","5 (weed kill ratio 90% or more, (practically complete withering))","e: wheat, effect on crop grade (wheat): 0 (weed kill ratio 5% or less (practically no effect)); N: chickweed, weedkilling efficacy grade (chickweed): 4 (weed kill ratio 70% or more, less than 90%); L: redroot pigweed, weedkilling efficacy grade (redroot pigweed): 4 (weed kill ratio 70% or more, less than 90%); d: soybean, effect on crop grade (soybean): 4 (weed kill ratio 70% or more, less than 90%); M: fig-leafed goosefoot, weedkilling efficacy grade (fig-leafed goosefoot): 4 (weed kill ratio 70% or more, less than 90%)"
Cc1cc(Cl)cc(NC(=O)C(C)(C)N2COCN(c3ccccc3)C2=O)n1 [A-2-25],"4 (weed kill ratio 70% or more, less than 90%)","4 (weed kill ratio 70% or more, less than 90%)",0 (weed kill ratio 5% or less (practically no effect)),"5 (weed kill ratio 90% or more, (practically complete withering))","5 (weed kill ratio 90% or more, (practically complete withering))","5 (weed kill ratio 90% or more, (practically complete withering))","5 (weed kill ratio 90% or more, (practically complete withering))","5 (weed kill ratio 90% or more, (practically complete withering))","5 (weed kill ratio 90% or more, (practically complete withering))","5 (weed kill ratio 90% or more, (practically complete withering))","5 (weed kill ratio 90% or more, (practically complete withering))","5 (weed kill ratio 90% or more, (practically complete withering))","3 (weed kill ratio 40% or more, less than 70%)","5 (weed kill ratio 90% or more, (practically complete withering))","5 (weed kill ratio 90% or more, (practically complete withering))","5 (weed kill ratio 90% or more, (practically complete withering))","3 (weed kill ratio 40% or more, less than 70%)","5 (weed kill ratio 90% or more, (practically complete withering))","5 (weed kill ratio 90% or more, (practically complete withering))","5 (weed kill ratio 90% or more, (practically complete withering))","e: wheat, effect on crop grade (wheat): 0 (weed kill ratio 5% or less (practically no effect)); N: chickweed, weedkilling efficacy grade (chickweed): 4 (weed kill ratio 70% or more, less than 90%); L: redroot pigweed, weedkilling efficacy grade (redroot pigweed): 4 (weed kill ratio 70% or more, less than 90%); d: soybean, effect on crop grade (soybean): 0 (weed kill ratio 5% or less (practically no effect)); M: fig-leafed goosefoot, weedkilling efficacy grade (fig-leafed goosefoot): 4 (weed kill ratio 70% or more, less than 90%)"
Cc1cc(Cl)nc(NC(=O)C(C)(C)N2COCN(c3ccccc3)C2=O)c1 [A-2-26],"5 (weed kill ratio 90% or more, (practically complete withering))","3 (weed kill ratio 40% or more, less than 70%)",0 (weed kill ratio 5% or less (practically no effect)),"5 (weed kill ratio 90% or more, (practically complete withering))",0 (weed kill ratio 5% or less (practically no effect)),"5 (weed kill ratio 90% or more, (practically complete withering))","5 (weed kill ratio 90% or more, (practically complete withering))","5 (weed kill ratio 90% or more, (practically complete withering))","5 (weed kill ratio 90% or more, (practically complete withering))","5 (weed kill ratio 90% or more, (practically complete withering))","5 (weed kill ratio 90% or more, (practically complete withering))","5 (weed kill ratio 90% or more, (practically complete withering))","4 (weed kill ratio 70% or more, less than 90%)","5 (weed kill ratio 90% or more, (practically complete withering))","5 (weed kill ratio 90% or more, (practically complete withering))","5 (weed kill ratio 90% or more, (practically complete withering))","4 (weed kill ratio 70% or more, less than 90%)","5 (weed kill ratio 90% or more, (practically complete withering))","5 (weed kill ratio 90% or more, (practically complete withering))","5 (weed kill ratio 90% or more, (practically complete withering))","e: wheat, effect on crop grade (wheat): 3 (weed kill ratio 40% or more, less than 70%); N: chickweed, weedkilling efficacy grade (chickweed): 3 (weed kill ratio 40% or more, less than 70%); L: redroot pigweed, weedkilling efficacy grade (redroot pigweed): 2 (weed kill ratio 20% or more, less than 40%); d: soybean, effect on crop grade (soybean): 2 (weed kill ratio 20% or more, less than 40%); M: fig-leafed goosefoot, weedkilling efficacy grade (fig-leafed goosefoot): 4 (weed kill ratio 70% or more, less than 90%)"
